Measurements taken from the supplement of paper PMC11061612.

Assays:
Test in all cases: combination Emax (second highest fraction inhibited in the dose matrix, 72 h); higher = more inhibition; extreme values may be limits of the assay
[1] = tested on: COR-L95 (Small Cell Lung Carcinoma)
Method in brief: (§1)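 Bliss excess equals the observed combination effect minus the expected value EA + EB − EA·EB, where EA and EB are the effects of each agent alone. Combination Emax is the second-highest inhibition within the matrix. Inhibition was scaled from CellTiter-Glo 2.0 luminescence, with 0 set by vehicle wells and 1 by blank wells, after 72 hours of two-drug dosing of cells plated in 1536-well plates.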

[2] = tested on: DB (B-Cell Non-Hodgkin's Lymphoma)
Method in brief: as §1

[3] = tested on: ES7 (Ewing's Sarcoma)
Method in brief: as §1

[4] = tested on: G-292-Clone-A141B1 (Osteosarcoma)
Method in brief: as §1

[5] = tested on: HT-29 (Colorectal Carcinoma)
Method in brief: as §1

[6] = tested on: IHH-4 (Thyroid Gland Carcinoma)
Method in brief: as §1

[7] = tested on: KARPAS-620 (Plasma Cell Myeloma)
Method in brief: as §1

[8] = tested on: MDA-MB-157 (Breast Carcinoma)
Method in brief: as §1

[9] = tested on: MDA-MB-231 (Breast Carcinoma)
Method in brief: as §1

[10] = tested on: MFH-ino (Other Solid Carcinomas)
Method in brief: as §1

[11] = tested on: NALM-6 (B-Lymphoblastic Leukemia)
Method in brief: as §1

[12] = tested on: NCI-H1299 (Non-Small Cell Lung Carcinoma)
Method in brief: as §1

[13] = tested on: NCI-H211 (Small Cell Lung Carcinoma)
Method in brief: as §1

[14] = tested on: NCI-H2595 (Mesothelioma)
Method in brief: as §1

[15] = tested on: OCI-AML2 (Acute Myeloid Leukemia)
Method in brief: as §1

[16] = tested on: SN12C (Kidney Carcinoma)
Method in brief: as §1

[17] = tested on: SW1088 (Low Grade Glioma)
Method in brief: as §1

[18] = tested on: SW1783 (Low Grade Glioma)
Method in brief: as §1

[19] = tested on: SW1990 (Pancreatic Carcinoma)
Method in brief: as §1

[20] = tested on: TE-5 (Esophageal Squamous Cell Carcinoma)
Method in brief: as §1

Row | SMILES | combination Emax [1] | combination Emax [2] | combination Emax [3] | combination Emax [4] | combination Emax [5] | combination Emax [6] | combination Emax [7] | combination Emax [8] | combination Emax [9] | combination Emax [10] | combination Emax [11] | combination Emax [12] | combination Emax [13] | combination Emax [14] | combination Emax [15] | combination Emax [16] | combination Emax [17] | combination Emax [18] | combination Emax [19] | combination Emax [20]
1 | Cc1c2c(nn1C)CSCc1cc(n(C)n1)CSc1cc(c3ccccc3c1)OCCCc1c(C(=O)O)n(C)c3c-2c(Cl)ccc13 [AZD5991] + CS(=O)(=O)CCNCc1ccc(-c2ccc3ncnc(Nc4ccc(OCc5cccc(F)c5)c(Cl)c4)c3c2)o1 [Lapatinib] (first compound max 1 µM, 7x7, partner max 10 µM) | 0.177 | 1 | 0.737 | 0.264 | 0.783 | 0.278 | 1 | 0.883 | 0.263 | 0.234 | 0.761 | 0.301 | 0.979 | 0.361 | 0.978 | 0.249 | 0.36 | 0.165 | 0.295 | 0.308
2 | C[C@@H](Oc1cc(-c2cnn(C3CCNCC3)c2)cnc1N)c1c(Cl)ccc(F)c1Cl [Crizotinib] + CC1=C(C(=CC=C1)Cl)NC(=O)C2=CN=C(S2)NC3=CC(=NC(=N3)C)N4CCN(CC4)CCO [Dasatinib] (first compound max 10 µM, 7x7, partner max 2 µM) | 0.354 | 0.711 | 0.883 | 0.762 | 0.881 | 0.875 | 0.835 | 0.303 | 0.94 | 0.821 | 0.942 | 0.734 | 0.964 | 0.628 | 0.826 | 0.231 | 0.829 | 0.784 | 0.255 | 0.56
3 | CC1(C)CCC(CN2CCN(c3ccc(C(=O)NS(=O)(=O)c4ccc(NCC5CCOCC5)c([N+](=O)[O-])c4)c(Oc4cnc5[nH]ccc5c4)c3)CC2)=C(c2ccc(Cl)cc2)C1 [Venetoclax] + CS(=O)(=O)CCNCc1ccc(-c2ccc3ncnc(Nc4ccc(OCc5cccc(F)c5)c(Cl)c4)c3c2)o1 [Lapatinib] (first compound max 1 µM, 7x7, partner max 10 µM) | 0.677 | 0.949 | 0.613 | 0.113 | 0.731 | 0.175 | 0.981 | 0.172 | 0.17 | 0.0533 | 0.911 | 0.125 | 1 | 0.197 | 1 | 0.222 | 0.254 | 0.207 | 0.174 | 0.218
4 | O=C(c1cc(Cc2n[nH]c(=O)c3ccccc23)ccc1F)N1CCN(C(=O)C2CC2)CC1 [Olaparib] + COc1nnc2ccc(N3CCC(c4ccc(OCCN5CCN(C)C(=O)[C@H]5C)cc4)CC3)nn12 [AZD5153] (first compound max 10 µM, 7x7, partner max 1 µM) | 0.455 | 0.74 | 0.944 | 0.224 | 0.658 | 0.535 | 0.666 | 0.438 | 0.626 | 0.346 | 0.911 | 0.637 | 0.992 | 0.273 | 0.983 | 0.255 | 0.392 | 0.319 | 0.195 | 0.347
5 | N#Cc1cnc(Nc2cc(NC[C@H]3CNCCO3)c(C(F)(F)F)cn2)cn1 [SRA737] + O=c1[nH]cc(F)c(=O)[nH]1 [5-Fluorouracil] (first compound max 10 µM, 7x7, partner max 20 µM) | 0.232 | 0.236 | 0.82 | 0.121 | 0.696 | 0.934 | 0.414 | 0.926 | 0.271 | 0.314 | 0.896 | 0.448 | 0.8 | 0.132 | 1 | 0.0841 | 0.691 | 0.318 | 0.515 | 0.24
6 | C=CCn1c(=O)c2cnc(Nc3ccc(N4CCN(C)CC4)cc3)nc2n1-c1cccc(C(C)(C)O)n1 [AZD1775] + CCc1c2c(nc3ccc(O)cc13)-c1cc3c(c(=O)n1C2)COC(=O)[C@]3(O)CC [SN-38] (first compound max 1 µM, partner max 0.3 µM) | 0.542 | 0.985 | 0.997 | 0.464 | 0.929 | 0.975 | 0.546 | 0.967 | 0.916 | 0.737 | 1 | 0.751 | 0.989 | 0.318 | 1 | 0.587 | 0.712 | 0.825 | 0.542 | 0.875
7 | Cc1c2c(nn1C)CSCc1cc(n(C)n1)CSc1cc(c3ccccc3c1)OCCCc1c(C(=O)O)n(C)c3c-2c(Cl)ccc13 [AZD5991] + Nc1ccn([C@@H]2O[C@H](CO)[C@@H](O)C2(F)F)c(=O)n1 [Gemcitabine] (first compound max 1 µM, 7x7, partner max 0.3 µM) | 0.407 | 1 | 0.982 | 0.152 | 0.6 | 1 | 1 | 0.878 | 0.587 | 0.725 | 0.928 | 0.527 | 1 | 0.464 | 1 | 0.422 | 0.197 | 0.673 | 0.353 | 0.75
8 | CS(=O)(=O)CCNCc1ccc(-c2ccc3ncnc(Nc4ccc(OCc5cccc(F)c5)c(Cl)c4)c3c2)o1 [Lapatinib] + NC1(c2ccc(-c3nc4ccn5c(=O)[nH]nc5c4cc3-c3ccccc3)cc2)CCC1 [MK-2206] (first compound max 10 µM, 7x7, partner max 10 µM) | 0.904 | 0.944 | 0.938 | 0.468 | 0.95 | 0.92 | 0.928 | 0.273 | 0.729 | 0.153 | 0.957 | 0.407 | 0.944 | 0.228 | 0.912 | 0.238 | 0.624 | 0.395 | 0.256 | 0.728
9 | N#Cc1cnc(Nc2cc(NC[C@H]3CNCCO3)c(C(F)(F)F)cn2)cn1 [SRA737] + CCc1c2c(nc3ccc(O)cc13)-c1cc3c(c(=O)n1C2)COC(=O)[C@]3(O)CC [SN-38] (first compound max 10 µM, 7x7, partner max 0.3 µM) | 0.572 | 0.988 | 1 | 0.41 | 0.903 | 0.98 | 0.658 | 0.955 | 0.908 | 0.704 | 1 | 0.559 | 0.987 | 0.389 | 1 | 0.627 | 0.736 | 0.857 | 0.519 | 0.851
10 | CN(CCO)CC[C@H](CSc1ccccc1)Nc1ccc(S(=O)(=O)NC(=O)c2ccc(N3CCC([C@@H](O)c4ccccc4-c4ccc(Cl)cc4)CC3)cc2)cc1S(=O)(=O)C(F)(F)F [AZD4320] + CC(=O)O[C@H]1C(=O)[C@@]2(C)[C@H]([C@H](OC(=O)c3ccccc3)[C@]3(O)C[C@H](OC(=O)[C@H](O)[C@@H](NC(=O)c4ccccc4)c4ccccc4)C(C)=C1C3(C)C)[C@]1(OC(C)=O)CO[C@@H]1C[C@@H]2O [Paclitaxel] (first compound max 1 µM, 7x7, partner max 3 µM) | 1 | 1 | 1 | 0.891 | 0.885 | 0.999 | 1 | 0.86 | 0.984 | 0.777 | 1 | 0.892 | 1 | 0.726 | 1 | 0.823 | 0.837 | 0.875 | 0.957 | 0.968
11 | O=C(c1cc(Cc2n[nH]c(=O)c3ccccc23)ccc1F)N1CCN(C(=O)C2CC2)CC1 [Olaparib] + CC1(C)CCC(CN2CCN(c3ccc(C(=O)NS(=O)(=O)c4ccc(NCC5CCOCC5)c([N+](=O)[O-])c4)c(Oc4cnc5[nH]ccc5c4)c3)CC2)=C(c2ccc(Cl)cc2)C1 [Venetoclax] (first compound max 10 µM, 7x7, partner max 1 µM) | 0.846 | 0.849 | 0.95 | 0.0374 | 0.115 | 0.169 | 0.872 | 0.165 | 0.239 | 0.118 | 0.965 | 0.0838 | 0.99 | 0.109 | 0.99 | 0.206 | 0.136 | 0.0873 | 0.179 | 0.0752
12 | CN(CCO)CC[C@H](CSc1ccccc1)Nc1ccc(S(=O)(=O)NC(=O)c2ccc(N3CCC([C@@H](O)c4ccccc4-c4ccc(Cl)cc4)CC3)cc2)cc1S(=O)(=O)C(F)(F)F [AZD4320] + Nc1ccn([C@@H]2O[C@H](CO)[C@@H](O)C2(F)F)c(=O)n1 [Gemcitabine] (first compound max 1 µM, 7x7, partner max 0.3 µM) | 1 | 1 | 0.997 | 0.511 | 0.733 | 1 | 1 | 0.674 | 0.662 | 0.873 | 1 | 0.482 | 1 | 0.382 | 1 | 0.52 | 0.151 | 0.911 | 0.627 | 0.875
